# Target: T1, full length active recombinant SYK enzyme (Homo sapiens, UniProt P43405)
# T1 construct: full length active recombinant SYK enzyme (Millipore, Calif.); purchased Millipore
# Assay: Inhibition of Syk tyrosine phosphorylation activity (LANCE TR-FRET)
# Format: biochemical
# Details: Table 3; 1 nM SYK, 100 μM ATP; read-out: Syk IC50 code
# Description: The in vitro and in vivo human syk activities of the inventive compounds can be determined by various procedures known in the art, such as a test for their ability to inhibit the activity of human plasma syk. […] Inhibition of Syk Tyrosine Phosphorylation Activity Potency of candidate molecules for inhibiting syk tyrosine phosphorylation activity is assessed by measuring the ability of a test compound to inhibit syk-mediated tyrosine phosphorylation of a syk-specific substrate. SYK tyrosine phosphorylation activity is measured using the LANCETM Technology developed by Perkin Elmer Life and Analytical Sciences (Boston, Mass.). LANCETM refers to homogeneous time resolved fluorometry applications using techniques such as time-resolved fluorescence resonance energy transfer assay (TR-FRET) (see generally for procedures in Perkin Elmer Application Note-How to Optimize a Tyrosine Kinase Assay Using Time Resolved Fluorescence-Based LANCE Detection, wwww.perkinelmer.com/lifesciences). The assay principle involves detection of a phosphorylated substrate using energy transfer from a phosphospecific europium-labeled antibody to streptavidin-allophycocyanin as an acceptor. To test the ability of candidate molecules to inhibit SYK tyrosine phosphorylation activity, molecules are reconstituted in 30% DMSO and serially diluted 1:3 with the final dilution containing DMSO in the absence of the candidate molecule. The final DMSO concentration in the assay is 3%. Kinase assays are performed as a two part reaction. The first reaction is a kinase reaction and which comprises of a candidate molecule, full length active recombinant SYK enzyme (Millipore, Calif.) and biotin-labeled SYK-specific substrate biotin-[…]-OH. The second reaction involves termination of the kinase reaction and the simultaneous addition of the detection reagents-europium-labeled anti-phosphotyrosine reagent (Eu-W1024-PY100, Perkin Elmer, Boston, Mass.) and Streptavidin-Allophycocyanin detection reagent (SA-APC, Prozyme, Calif.). The kinase reaction is performed in a black U-bottom 96-well microtitre plate. […] The reaction is allowed to proceed for 1 hour at room temperature. […] The detection reagents are added to the reaction mixture at the following dilutions-1:500 for Eu-W1024-PY100 and 1:250 for SA-APC. The kinase reaction is terminated by the addition of 50 μL quench buffer containing the detection reagents. The detection is allowed to proceed for 1 hr at room temperature. Detection of the phosphorlated substrate in the absence and presence of inhibitors is measured in the TR-FRET instrument, Analyst HT ([…], Sunnyvale, Calif.) and the condition for measurements are set up using CriterionHost Release 2.0 ([…], Sunnyvale, Calif.). […] IC50s were derived by non-linear regression analysis.
row,SMILES,IC50
1,"O=C(O)CN1C(=O)CCc2cc(Nc3nc(NC4CCC4)c4cc[nH]c4n3)ccc21 [Example 70, 2-(6-(4-(cyclobutyamino)-7H-pyrrolo[2,3-d]pyrimidine-2-ylamino)-2-oxo-3,4-dihydroquinolin-1(2H)-yl)acetic acid]",10 to 100 nM
2,"CN(C)CCNC(=O)CN1C(=O)CCc2cc(Nc3nc(NC4CCC4)c4cc[nH]c4n3)ccc21 [Example 71, 2-(6-(4-(cyclobutyamino)-7H-pyrrolo[2,3-d]pyrimidine-2-ylamino)-2-oxo-3,4-dihydroquinolin-1(2H)-yl)-N-(2-(dimethylamino)ethyl)acetamide]",100 to 1000 nM
3,"COC(=O)N(C)c1ccc(Nc2nc(NC3CCC3)c3cc[nH]c3n2)cc1 [Example 72, Methyl 4-(4-(cyclobutylamino)-7H-pyrrolo[2,3-d]pyrimidin-2-ylamino)phenyl(methyl)carbamate]",100 to 1000 nM
4,COC(=O)N(C)c1ccc(Nc2nc(NC3CC3)c3cc[nH]c3n2)cc1 [Example 73],100 to 1000 nM
5,"CN(C(=O)CO)c1ccc(Nc2nc(NC3CCC3)c3cc[nH]c3n2)cc1 [Example 74, N-(4-(4-(cyclobutylamino)-7H-pyrrolo[2,3-d]pyrimidin-2-ylamino)phenyl)-2-hydroxy-N-methylacetamide]",10 to 100 nM
6,"CN(C(=O)CO)c1ccc(Nc2nc(NC3CC3)c3cc[nH]c3n2)cc1 [Example 75, N-(4-(4-(cyclopropylamino)-7H-pyrrolo[2,3-d]pyrimidin-2-ylamino)phenyl)-2-hydroxy-N-methylacetamide]",10 to 100 nM
7,CS(=O)(=O)Cc1ccc(Nc2nc(NC3CCC3)c3cc[nH]c3n2)cc1 [Example 76],100 to 1000 nM
8,CS(=O)(=O)Cc1cccc(Nc2nc(NC3CCC3)c3cc[nH]c3n2)c1 [Example 77],100 to 1000 nM
9,CNC(=O)COc1cccc(Nc2nc(Nc3ccc4cn[nH]c4c3)nc3[nH]ccc23)c1 [Example 78],10 to 100 nM
10,"Nc1nc(Nc2ccc3cn[nH]c3c2)nc2[nH]ccc12 [Example 79, N^2-(1H-indazol-6-yl)-7H-pyrrolo[2,3-d]pyrimidin-2,4-diamine]",100 to 1000 nM
11,"CN(C(=O)C1CC1)c1ccc(Nc2nc(NC3CCC3)c3cc[nH]c3n2)cc1 [Example 80, N-(4-(4-(cyclobutylamino)-7H-pyrrolo[2,3-d]pyrimidin-2-ylamino)phenyl)-N-methylcyclopropanecarboxamide]",100 to 1000 nM
12,"CN(C(=O)C1CC1)c1ccc(Nc2nc(NC3CC3)c3cc[nH]c3n2)cc1 [Example 81, N-(4-(4-(cyclopropylamino)-7H-pyrrolo[2,3-d]pyrimidin-2-ylamino)phenyl)-N-methylcyclopropanecarboxamide]",100 to 1000 nM
13,"CNc1nc(Nc2ccc(N(C)C(=O)C3CC3)cc2)nc2[nH]ccc12 [Example 82, N-(4-(4-(methylamino)-7H-pyrrolo[2,3-d]pyrimidin-2-ylamino)phenyl)-N-methylcyclopropanecarboxamide]",100 to 1000 nM
14,"NC(=O)CNc1nc(Nc2ccc3cn[nH]c3c2)nc2[nH]ccc12 [Example 83, 2-(2-(1H-indazol-6-ylamino)-7H-pyrrolo[2,3-d]pyrimidin-4-ylamino)acetamide]",100 to 1000 nM
15,"CN(C)CC(=O)N(C)c1ccc(Nc2nc(NC3CCC3)c3cc[nH]c3n2)cc1 [Example 84, N-(4-(4-(cyclobutylamino)-7H-pyrrolo[2,3-d]pyrimidin-2-ylamino)phenyl)-2-(dimethlamino)-N-methylacetamide]",100 to 1000 nM
16,CN(C)CCCNC(=O)c1ccc(Nc2nc(NC3CCC3)c3cc[nH]c3n2)cc1 [Example 85],100 to 1000 nM
17,"CN(C(=O)CCO)c1ccc(Nc2nc(NC3CCC3)c3cc[nH]c3n2)cc1 [Example 86, N-(4-(4-(cyclobutylamino)-7H-pyrrolo[2,3-d]pyrimidin-2-ylamino)phenyl)-3-hydroxy-N-methypropanamide]",10 to 100 nM
18,"CN(C(=O)CCO)c1ccc(Nc2nc(NC3CC3)c3cc[nH]c3n2)cc1 [Example 87, N-(4-(4-(cyclopropylamino)-7H-pyrrolo[2,3-d]pyrimidin-2-ylamino)phenyl)-3-hydroxy-N-methypropanamide]",10 to 100 nM
19,"COCCNc1nc(Nc2ccc3cn[nH]c3c2)nc2[nH]ccc12 [Example 89, N^2-(1H-indazol-6-ylamino)-N^4-(2-methoxyethyl)-7H-pyrrolo[2,3-d]pyrimidine-2,4-diamine]",100 to 1000 nM
20,"COCCNc1nc(Nc2ccc(N3CCN(C(C)=O)CC3)cc2)nc2[nH]ccc12 [Example 90, 1-(4-(4-(4-(2-methoxyethylamino)-7H-pyrrolo[2,3-d]pyrimidin-2-ylamino)phenyl)piperazin-1-yl)ethanone]",100 to 1000 nM
21,"OCCNc1nc(Nc2ccc3cn[nH]c3c2)nc2[nH]ccc12 [Example 91, N^2-(1H-indazol-6-ylamino)-N^4-(2-hydroxyethyl)-7H-pyrrolo[2,3-d]pyrimidine-2,4-diamine]",10 to 100 nM
22,"NCCOCCNc1nc(Nc2ccc3cn[nH]c3c2)nc2[nH]ccc12 [Example 92, N^4-(2-2-(aminoethoxy)ethyl)-N^2-(1H-indazol-6-ylamino)-7H-pyrrolo[2,3-d]pyrimidine-2,4-diamine]",10 to 100 nM
23,"CC(=O)N1CCN(c2ccc(Nc3nc(NCCOCCN)c4cc[nH]c4n3)cc2)CC1 [Example 93, 1-(4-(4-(4-(2-(2-aminoethoxy)amino)-7H-pyrrolo[2,3-d]pyrimidin-2-ylamino)phenyl)piperazin-1-yl)ethanone]",100 to 1000 nM
24,"NCCOCCNc1nc(Nc2ccc(N3CCC[C@H]3C(N)=O)cc2)nc2[nH]ccc12 [Example 94, (S)-1-(4-(4-(2-(2-aminoethoxy)ethylamino)-7H-pyrrolo[2,3-d]pyrimidin-2-ylamino)phenyl)pyrrolidine-2-carboxamide]",100 to 1000 nM
25,"CC(=O)N(C)c1ccc(Nc2nc(Nc3cccc(CN)c3)c3cc[nH]c3n2)cc1 [Example 97, N-(4-(4-(3-(aminomethyl)phenylamino)-7H-pyrrolo[2,3-d]pyrimidin-2-ylamino)phenyl)-N-methylacetamide]",100 to 1000 nM

# Further lines, results first:
row,IC50,SMILES
1,100 to 1000 nM,"CC(=O)N1CCN(c2ccc(Nc3nc(Nc4cccc(C(N)=O)c4)c4cc[nH]c4n3)cc2)CC1 [Example 95A, 3-(2-(4-(4-acetylpiperazin-1-yl)phenylamino)-7H-pyrrolo[2,3-d]pyrimidin-4-ylamino)benzamide]"
2,100 to 1000 nM,"NC(=O)c1cccc(Nc2nc(Nc3ccc(N4CCNCC4)cc3)nc3[nH]ccc23)c1 [Example 95B, 3-(2-(4-(piperazin-1-yl)phenylamino)-7H-pyrrolo[2,3-d]pyrimidin-4-ylamino)benzamide]"
3,100 to 1000 nM,"CC(=O)N1CCN(c2ccc(Nc3nc(Nc4cccc(S(N)(=O)=O)c4)c4cc[nH]c4n3)cc2)CC1 [Example 96A, 3-(2-(4-(4-acetylpiperazin-1-yl)phenylamino)-7H-pyrrolo[2,3-d]pyrimidin-4-ylamino)benzenesulfonamide]"
4,10 to 100 nM,"NS(=O)(=O)c1cccc(Nc2nc(Nc3ccc(N4CCNCC4)cc3)nc3[nH]ccc23)c1 [Example 96B, 3-(2-(4-(piperazin-1-yl)phenylamino)-7H-pyrrolo[2,3-d]pyrimidin-4-ylamino)benzenesulfonamide]"
5,100 to 1000 nM,"CC(=O)N1CCN(c2ccc(Nc3nc(N[C@H](C)CO)c4cc[nH]c4n3)cc2)CC1 [Example 98A, (R)-1-(4-(4-(4-(1-hydroxypropan-2-ylamino)-7H-pyrrolo[2,3-d]pyrimidin-2-ylamino)phenyl)piperazin-1-yl)ethanone]"
6,100 to 1000 nM,"C[C@H](CO)Nc1nc(Nc2ccc(N3CCNCC3)cc2)nc2[nH]ccc12 [Example 98B, (R)-2-(2-(4-(piperazin-1-yl)phenylamino)-7H-pyrrolo[2,3-d]pyrimidin-4-ylamino)propan-1-ol]"
7,100 to 1000 nM,"CC(=O)N1CCN(c2ccc(Nc3nc(N[C@@H](C)CO)c4cc[nH]c4n3)cc2)CC1 [Example 99A, (S)-1-(4-(4-(4-(1-hydroxypropan-2-ylamino)-7H-pyrrolo[2,3-d]pyrimidin-2-ylamino)phenyl)piperazin-1-yl)ethanone]"
8,100 to 1000 nM,"C[C@@H](CO)Nc1nc(Nc2ccc(N3CCNCC3)cc2)nc2[nH]ccc12 [Example 99B, (S)-2-(2-(4-(piperazin-1-yl)phenylamino)-7H-pyrrolo[2,3-d]pyrimidin-4-ylamino)propan-1-ol]"
9,> 1000 nM,"CC(=O)N1CCN(c2ccc(Nc3nc(NC4CCS(=O)(=O)C4)c4cc[nH]c4n3)cc2)CC1 (stereo not shown) [Example 100A, 1-(4-(4-(4-(1,1-dioxy-tetrahydrothiophen-3-ylamino)-7H-pyrrolo[2,3-d]pyrimidin-2-ylamino)phenyl)piperazin-1-yl)ethanone]"

# Source: patent US9139581B2 (PORTOLA PHARMACEUTICALS, INC., priority 2008, dated 2015)
